Structures are written as SMILES.

Experiment [1] relates to ovariectomized (OVX) rats. The experiment is described as follows: OVX rat study: ex vivo μCT analysis of tibial metaphysis and femur diaphysis. It counts as in vivo, Wistar rats. The protocol:
(§1) A total of 264 Wistar female rats, ˜6 months old, were supplied by the Animal House at King Fahd Medical Research Center (KFMRC), KAU. Rats were housed in individual cages and maintained at 22° C. with a 12-h light/dark cycle. During the study period, rats were given standard rodent chow diet ad libitum (commercial rat cubes containing approximately 18% protein, 3% fat, 77% carbohydrate, and 2% of an inorganic-salt mixture with a vitamin supplement by weight, supplied by Grain Silos and Flour Mills Organization, Jeddah, Saudi Arabia) and water until the onset of intervention. Prior to surgery, rats were anesthetized with ketamine [(10% ketamine hydrochloride (80 mg/kg body weight), Cayman Chemical, Michigan, USA] and xylazine [(2% xylazine hydrochloride, 10 mg/kg body weight), Sigma-Aldrich Co., St. Louis, USA]. A single longitudinal skin incision was made on the dorsal midline at the level of the kidneys and both ovaries were ligated and removed to produce an ovariectomy in all OVX group animals. A SHAM-operated group, acting as a negative control for the effect of ovariectomy on bone parameters, underwent bilateral laparotomy, during which the ovaries were exposed but remained intact. […] The lycopene-supplemented groups were given lycopene (15, 30 and 45 mg/kg body weight per day) dissolved in corn oil by daily intra-gastric administration for the experimental period of 12 weeks. The SHAM, OVX and ALN control groups were given the same volume of corn oil without lycopene treatment. […] A 12-week randomized placebo-controlled study in order to examine the protective effects of lycopene supplementation on bone mass and fragility in OVX rats was concluded. Prior to surgery, body weight and bone mineral density (BMD) were obtained for all animals. Rats were randomized using a computer-generated randomization code into one of six groups: (1) sham-operated (SHAM; n=44); (2) ovariectomized control (OVX; n=44); (3) OVX lycopene-supplemented (15 mg/kg body weight per day) (n=44); (4) OVX lycopene-supplemented (30 mg/kg body weight per day) (n=44); (5) OVX lycopene-supplemented (45 mg/kg body weight per day) (n=44) and (6) OVX alendronate-treated (ALN) [2.0 μg/kg body weight per day subcutaneously (sc)] (n=44). Alendronate is an anti-resorptive agent for the treatment of osteoporosis and was used as a positive therapy control. […] All OVX groups were pair-fed with the SHAM group throughout the study to avoid the possible effects of ovariectomy-induced over-consumption and subsequent excessive weight gain. Treatment started 1 week after the surgery: this period of rest allowed the rats to recover from the stress associated with the surgery. In addition, after surgery, rats were administered Diclofenac sodium injection (20 mg/Kg body weight) to reduce the pain associated with the surgery. Rats were weighed and examined daily. Blood and urine samples were collected at baseline, during, and at the end of treatment for measurement of various BTMs and other analytes. In vivo dual energy x-ray absorptiometry (DXA) measurements were made for the bone mineral content (BMC) and BMD of the whole body, lumbar spine (L1-L4), and the right humerus, together with body composition at 12 weeks of treatment. One day following the post-test DXA assessments (at 12 weeks, 16 rats in each group), animals were euthanized by decapitation and right and left femurs were extracted for further biomechanical and histomorphometric analyses. Blood and urine samples were collected from all experimental groups to measure biochemical analytes and BTMs at baseline and 4, 8, and 12 weeks of treatment. Peripheral Quantitative CT (pQCT) scans were made of the proximal tibia metaphysis and the diaphysis. In vivo micro-computed tomographic (μCT) scans of the proximal tibia were obtained during the treatment period to monitor changes in bone mass and microarchitecture. […]

Experiment [2] has as its system ovariectomized (OVX) rats. Description: OVX rat study: biochemical bone turnover markers. It counts as in vivo, Wistar rats. Particulars: ALN 2.0 μg/kg/day sc. The protocol: as §1, with “In addition, after surgery, rats were administered Diclofenac sodium injection (20 mg/Kg body weight) to reduce the pain associated with the surgery. Rats were weighed and examined daily. Blood and urine samples were collected at baseline, during, and at the end of treatment for measurement of various BTMs and other analytes. In vivo dual energy x-ray absorptiometry (DXA) measurements were made for the bone mineral content (BMC) and BMD of the whole body, lumbar spine (L1-L4), and the right humerus, together with body composition at 12 weeks of treatment. One day following the post-test DXA assessments (at 12 weeks, 16 rats in each group), animals were euthanized by decapitation and right and left femurs were extracted for further biomechanical and histomorphometric analyses. Blood and urine samples were collected from all experimental groups to measure biochemical analytes and BTMs at baseline and 4, 8, and 12 weeks of treatment.” left out, “diaphysis.” for “diaphysis. In vivo micro-computed tomographic (μCT) scans of the proximal tibia were obtained during the treatment period to monitor changes in bone mass and microarchitecture.”

Experiment [3] concerns ovariectomized (OVX) rats. The experiment is described as follows: OVX rat study: in vivo pQCT densitometry of tibia metaphysis. On the set-up: species or system Wistar rats. Particulars: 12 weeks, versus OVX control, P<0.001. Here is the method: (§2) A total of 264 Wistar female rats, ˜6 months old, were supplied by the Animal House at King Fahd Medical Research Center (KFMRC), KAU. Rats were housed in individual cages and maintained at 22° C. with a 12-h light/dark cycle. During the study period, rats were given standard rodent chow diet ad libitum (commercial rat cubes containing approximately 18% protein, 3% fat, 77% carbohydrate, and 2% of an inorganic-salt mixture with a vitamin supplement by weight, supplied by Grain Silos and Flour Mills Organization, Jeddah, Saudi Arabia) and water until the onset of intervention. Prior to surgery, rats were anesthetized with ketamine [(10% ketamine hydrochloride (80 mg/kg body weight), Cayman Chemical, Michigan, USA] and xylazine [(2% xylazine hydrochloride, 10 mg/kg body weight), Sigma-Aldrich Co., St. Louis, USA]. A single longitudinal skin incision was made on the dorsal midline at the level of the kidneys and both ovaries were ligated and removed to produce an ovariectomy in all OVX group animals. A SHAM-operated group, acting as a negative control for the effect of ovariectomy on bone parameters, underwent bilateral laparotomy, during which the ovaries were exposed but remained intact. […] Peripheral Quantitative CT (pQCT) scans were made of the proximal tibia metaphysis and the diaphysis. […]

Experiment [4] deals with ovariectomized (OVX) rats. Description: OVX rat study: dynamic bone histomorphometry of tibial metaphysis and diaphysis. The experiment is classed as in vivo, Wistar rats. Conditions: ALN group, tibial diaphysis, for the most part. Here is the method: as §1
Experiment [5] relates to ovariectomized (OVX) rats. Description: OVX rat study: in vivo DXA densitometry of lumbar spine and humerus. Particulars: 12 weeks, versus OVX control. On the set-up: species or system Wistar rats. The protocol:
as §2

For experiment [6], the system named is ovariectomized (OVX) rats. The experiment is described as follows: OVX rat study: ex vivo pQCT and biomechanical testing of lumbar spine and femur. The experiment is classed as in vivo, Wistar rats. Particulars: 12 weeks. Here is the method: as §1, with “One day following the post-test DXA assessments (at 12 weeks, 16 rats in each group), animals were euthanized by decapitation and right and left femurs were extracted for further biomechanical and histomorphometric analyses. Blood and urine samples were collected from all experimental groups to measure biochemical analytes and BTMs at baseline and 4, 8, and 12 weeks of treatment.” left out, “diaphysis.” for “diaphysis. In vivo micro-computed tomographic (μCT) scans of the proximal tibia were obtained during the treatment period to monitor changes in bone mass and microarchitecture.”

Experiment [7] has as its system ovariectomized (OVX) rats. The experiment is described as follows: OVX rat study: serum minerals, enzymes and hormones. The experiment is classed as in vivo, Wistar rats. Conditions: OVX rats; lycopene 45 mg/kg/day; ALN 2.0 μg/kg/day sc; P<0.001. Here is the method: as §1, with “In addition, after surgery, rats were administered Diclofenac sodium injection (20 mg/Kg body weight) to reduce the pain associated with the surgery. Rats were weighed and examined daily. Blood and urine samples were collected at baseline, during, and at the end of treatment for measurement of various BTMs and other analytes. In vivo dual energy x-ray absorptiometry (DXA) measurements were made for the bone mineral content (BMC) and BMD of the whole body, lumbar spine (L1-L4), and the right humerus, together with body composition at 12 weeks of treatment. One day following the post-test DXA assessments (at 12 weeks, 16 rats in each group), animals were euthanized by decapitation and right and left femurs were extracted for further biomechanical and histomorphometric analyses. Blood and urine samples were collected from all experimental groups to measure biochemical analytes and BTMs at baseline and 4, 8, and 12 weeks of treatment.” left out, “diaphysis.” for “diaphysis. In vivo micro-computed tomographic (μCT) scans of the proximal tibia were obtained during the treatment period to monitor changes in bone mass and microarchitecture.”

Where [8] appears, read: 12 weeks, lycopene, ALN 2.0 μg/kg/day, P<0.001.

Consider `NCCCC(O)(P(=O)(O)O)P(=O)(O)O` [ALN, alendronate, reference compound], for which, in experiment [1] (setting [8]), the “decrease in Tb.Sp, tibia metaphysis (μCT), compared with OVX group” value was found to be 37.3%; the “increase in BV/TV, tibia metaphysis (μCT), compared with OVX group” value turned out to be 128.9%; the “increase in Tb.N, tibia metaphysis (μCT), compared with OVX group” value was 25.8%. Further, in experiment [1] (OVX rats, 12 weeks), the “relative bone volume (BV/TV) of the femur diaphysis (μCT)” value is reported as “nor lycopene or ALN treatment had significant effects”. Further, the “femoral cortical values for Ct.Th and Ct.Po (μCT)” value in experiment [1] (lycopene 30 and 45 mg/kg/day, ALN, versus SHAM and OVX groups) is “improved”. The “OVX-induced increases in s-CTX and u-DPD levels” value in experiment [2] (P<0.001) is “prevented”. In experiment [2] (week 12, P<0.001), the “s-OC and s-PINP levels compared with OVX control” value was “significantly decreased”. Also, in experiment [3], the “OVX-induced bone loss (total and trabecular BMD, proximal tibia, pQCT)” value is “prevented”. Also, the “OVX-induced effects on cortical bone indices” value in experiment [4] is listed as “also prevented”. In experiment [5], the “OVX-induced bone loss (BMC and BMD, lumbar spine and humerus, DXA)” value is “prevented”. Moreover, the “OVX-induced decrease in cortical thickness” value in experiment [6] (lycopene particularly 45 mg/kg/day, alendronate 2.0 μg/kg/day) was “prevented”. The “lumbar spine biomechanical / bone strength parameters” value in experiment [6] (lycopene particularly 30 and 45 mg/kg/day, ALN 2.0 μg/kg/day, P<0.05) is reported as “significantly increased”. In experiment [7], the “serum PTH values versus other groups” value is on record as “significantly higher”.

For the origin of these results see US9956181B2, “Composition of nanoformulated lycopene and method of using the composition” (priority 2015, dated 2018).
